According to patent publication US10010569B2, “Seaweed extracts, unsaturated fatty acids, and methods of treatment” (priority 2012, dated 2018):
Several values for one entry are separate records, joined by “and”; a condition that tells them apart may be missing. Identical values can stand only once.

Columns and labels:
Format in all cases: cell-based, human
ARE = assay: ARE-luc reporter assay; conditions: IMR-32 cells
Protocol: IMR-32 cells (33,000 cells/well) were transiently transfected with ARE-luc plasmid (100 ng/well) using FuGENE® HD (Roche Diagnostics) as a transfection reagent (1:3, w/v). The cells were dispensed into each well of a 96-well plate and incubated for 24 h. They were then treated with solvent control (DMSO or EtOH, 1%, v/v) or individual extracts/fractions/compounds for 24 h before ARE activities were detected by using BriteLite detection reagent (PerkinElmer). Relative fold activation for the treated samples over solvent control was reported. The ARE-luciferase (ARE-luc) reporter contains the ARE sequence of human NQO1: 5′-[…]-3′ [Moehlenkamp, J. D.; Johnson, J. A. Activation of antioxidant/electrophile-responsive elements in IMR-32 human neuroblastoma cells. Arch Biochem Biophys. 363:98-106; 1999].

NQO1 [1] = assay: NQO1 mRNA levels by qPCR in IMR-32 cells; conditions: 1 μg/ml, 12 h
Protocol: (§1) Cultured cells were treated in the same way as described for the immunoblot experiments. After 12 h, total RNA was extracted using a commercial kit (RNeasy Mini Kit, Qiagen). For mice tissues, total RNA was extracted using TRIzol® reagent (Invitrogen) following the standard manufacturer's protocol.
(§2) cDNA synthesis and qPCR experiments for both cultured cells and mice tissues were performed following the same procedure. 2 μg of each RNA sample was reverse-transcribed into cDNA, which served as a template for TagMan® gene expression assays (Applied Biosystems). For each qPCR run, a total reaction volume of 25 μl was prepared consisting of 12.5 μl of TaqMan 2× universal master mix, 1.25 μl of a 20× TaqMan gene expression assay probe, 1 μl of cDNA and 10.25 μl of RNase-free sterile water. The reactions were dispensed into 96-well optical reaction plates (Applied Biosystems) and detected in an Applied Biosystems® 7300 Real-Time PCR System. The thermocycler program consisted of 2 min at 50° C., 10 min at 95° C., and 40 cycles of 95° C. for 15 s and 60° C. for 1 min. For normalization, GAPDH expression was used as an internal control for human cells (IMR-32) and β-actin for mice tissue samples.

NRF2 = NRF2 mRNA levels by qPCR in IMR-32 cells; conditions: 1-10 μg/ml, 12 h
Protocol: as §1, §2

NQO1 [2] = assay: NQO1 protein expression by immunoblot in IMR-32 cells; conditions: 24 h
Protocol: (§3) IMR-32 cells (800,000 cells/well) were seeded into each well of 6-well plates. 24 h later, cells were treated with solvent control (EtOH, 0.5%, v/v) or fractions/compounds. After another 24 h, whole cell lysates were collected in PhosphoSafe buffer (Novagen) following the manufacturer's protocol and stored at −80° C. until analyzed. For each sample, the protein concentration was measured using a BCA assay kit (Pierce). Samples containing equal amount of total protein were separated by SDS-PAGE (NuPAGE® Novex® 4-12% Bis-Tris Mini gels, Invitrogen), transferred onto a PVDF membrane, and incubated overnight with the indicated primary antibodies at 4° C. on an orbital shaker. The membranes were then incubated with the corresponding secondary antibodies (HRP-linked) for 1 h at room temperature and detected with Supersignal Femto Western Blotting kit (Pierce). Anti-NQO1 (mouse) antibody was from Abcam; anti-β-actin (rabbit), anti-mouse-HRP, and anti-rabbit-HRP antibodies were from Cell Signaling Technology.

glutathione = assay: Glutathione assay in IMR-32 cells
Protocol: Glutathione assays were performed following the manufacturer's protocol (Sigma). Briefly, IMR-32 cells (800,000 cells/well) were seeded into 6-well plates and incubated at 37° C. The cells were then treated with solvent control (EtOH, 0.5%, v/v) or compound 1 for the indicated period of time. At the end of each treatment, the cells were washed twice with Dulbecco's phosphate buffered saline (DPBS), harvested in 200 μl of DPBS, and pelleted at 600×g for 10 min at 4° C. After removal of DPBS, the cell pellet was deproteinized and re-suspended in 3 volumes of 5% sulfosalicylic acid solution (v/v). The suspension was frozen (liquid N2) and thawed (37° C. water bath) twice and then incubated at 4° C. for 5 min. The cell debris was spun down at 10,000×g for 10 min at 4° C. The supernatant was transferred to fresh tubes and used as glutathione stock. The concentration of the total glutathione (GSH+GSSG) was measured and compared with a standard curve of reduced glutathione (GSH).

NQO1 [3] = assay: RNA interference (NRF2 siRNA) and NQO1 immunoblot; conditions: IMR-32 cells, NRF2 siRNA 48 h, then 24 h treatment
Protocol: as §3
IMR-32 cells (600,000 cells/well) were seeded in 6-well plates and incubated at 37° C. for 24 h. […] The treated cells were then lysed in PhosphoSafe buffer and whole cell lysates analyzed by immunoblot (see above). […]

NQO1 [4] = assay: Kinase inhibitor pre-treatment and NQO1 immunoblot; conditions: 10 μg/ml, 24 h, 30 min pre-treatment with PD98059 50 μM
Protocol: as §3
For assays in the presence of an antioxidant, the cells were pretreated with excess NAC (1 mM, pH 7.50) for 2 h before they were treated with solvent control or the compounds (see above). […]

[5] = 10 μg/ml, 24 h, over solvent control
[6] = 32 μg/ml, 24 h, over solvent control

For `CCCCCCCCCC(=O)/C=C/CCCCCC(=O)O` [Compound 1, 7(E)-9-keto-octadec-7-enoic acid], the ARE activation (ARE; [5]) was 17.6 fold, the “NQO1 mRNA level” value (NQO1 [1]) was 1.5 fold and the “NRF2 mRNA levels” value (NRF2) was “remained unchanged”. For the same molecule, the NQO1 protein expression (NQO1 [2]) was “detectable starting at 1 μg/ml and was the highest at 10 μg/ml”, the “glutathione level restored relative to basal level” value (glutathione; at 16 h) was “more than 50%” and the “transient decrease of glutathione level” value (glutathione; until 8 h) was < 30% and ~30%. For the same molecule, the “glutathione level versus baseline” value (glutathione; up to 24 h) was “stayed above baseline”, the “NQO1 expression in NRF2-depleted cells” value (NQO1 [3]) was “virtually undetectable” and the “NQO1 expression in the presence of a MAPK (MEK1) inhibitor” value (NQO1 [4]) was “induced”.

With `CCCCCCCC(=O)/C=C/CCCCCC(=O)O` [Compound 2, 7(E)-9-keto-hexadec-7-enoic acid] the ARE activation (ARE; [5]) was 2.8 fold and the ARE activation (ARE; [6]) was 30.3 fold.

Molecule `CCCCCCCCCC(=O)/C=C/CCCCCC(N)=O` [Compound 3, 7(E)-9-keto-octadec-7-enamide] has an ARE activation (ARE; [5]) of 4.5 fold and an ARE activation (ARE; [6]) of 13.2 fold.

Molecule `CC(C)(C)c1cc(O)ccc1O` [tBHQ, reference compound] has an ARE activation (ARE; positive control, concentration not given) of 14.9 fold.
